US11320434B2, “Method and apparatus for rapid detection of SARS-CoV-2” (priority 2020, dated 2022)

Assays:
[1] = system: tetracysteine-containing peptide; conditions: peptide-bound versus free FlAsH-EDT2; cited from earlier work
[2] = biological target: T1, K9K peptide ([…], SARS-CoV-2 spike protein position 1245 to 1255) (Severe acute respiratory syndrome coronavirus 2, UniProt P0DTC2); type: binding
T1 construct: purchased Innovagen AB

O=C(O)c1ccccc1-c1c2ccc(=O)c([As]3SCCS3)c-2oc2c([As]3SCCS3)c(O)ccc12 [FlAsH, 2-(4,5-di(1,3,2-dithiarsolan-2-yl)-6-hydroxy-3-oxo-3H-xanthen-9-yl)benzoic acid]
increase in fluorescence upon exchanging the EDTs for a tetracysteine-containing peptide [1]: more than 50,000 times
change of fluorescence after heating the mixture [2]: more than doubled
effect of a reducing agent on emitted fluorescence [2]: can be enhanced
emission of K9K-FlAsH versus FlAsH Control [2]: meaningfully greater
emitted fluorescence versus Control at K9K dilutions [2]: meaningful increases over the Control
fluorescence after prior oxidation of K9K cysteine residues by DTNB (Curve 2) [2]: prevents generation of fluorescence
fluorescence after treatment of oxidized K9K with TCEP (Curve 3) [2]: recovery of fluorescence
fluorescence on treatment of peptide K9K with FlAsH (Curve 1) [2]: rapidly generate intense fluorescence emission
fluorescence with TCEP and heating versus without TCEP or heating [2]: nearly six times greater
time at which emission of fluorescence begins [2]: ≤ 15 s
